# In PubChem BioAssay AID1195 (EPA DSSTox, 2008):
# System: human maximum recommended daily dose, FDA database
# Experiment: DSSTox (FDAMDD) FDA Maximum (Recommended) Daily Dose Database
# Conditions: active compounds read low
# How it was run: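 MRDD values come from clinical trials with daily oral dosing, usually for 3–12 months, for the average adult, in mg/day converted to mg/kg-bw/day assuming 60 kg. Antineoplastic mg/m2 doses are divided by 37. Activity score maps log10(1/MRDD mmol) onto 1–100.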
# [1] = TherapeuticCategory: antiemetic
# [2] = TherapeuticCategory: antibacterial
# [3] = TherapeuticCategory: antihypertensive
# [4] = TherapeuticCategory: anesthetic
# [5] = TherapeuticCategory: anticonvulsant
# [6] = TherapeuticCategory: narcotic analgesic
# [7] = TherapeuticCategory: antidepressant
# [8] = TherapeuticCategory: glucocorticoid
# [9] = TherapeuticCategory: anticholinergic
# [10] = TherapeuticCategory: antineoplastic
smiles,measurement,setting,value
O=C1OC(c2ccc(O)cc2)(c2ccc(O)cc2)c2ccccc21,maximum recommended daily dose (mmol/kg-bw/day),TherapeuticCategory: cathartic,0.00682
C=CCC1(CC=C)C(=O)NC(=O)NC1=O,maximum recommended daily dose (mmol/kg-bw/day),"TherapeuticCategory: sedative, hypnotic",0.016
COc1cc(C[C@@H]2c3c(cc(OC)c(OC)c3OC)CC[N@@+]2(C)CCCOC(=O)CCC(=O)OCCC[N@@+]2(C)CCc3cc(OC)c(OC)c(OC)c3[C@@H]2Cc2cc(OC)c(OC)c(OC)c2)cc(OC)c1OC,maximum recommended daily dose (mmol/kg-bw/day),"TherapeuticCategory: skeletal muscle relaxant, neuromuscular blocker",4.52e-05
CC(=O)N(O)CCCCCNC(=O)CCC(=O)N(O)CCCCCNC(=O)CCC(=O)N(O)CCCCCN,maximum recommended daily dose (mmol/kg-bw/day),TherapeuticCategory: parenteral chelating agent,0.178
COc1cccc([C@@]2(O)CCCC[C@@H]2CN(C)C)c1,maximum recommended daily dose (mmol/kg-bw/day),TherapeuticCategory: analgesic,0.0253
COc1cc(C(=O)NS(=O)(=O)c2ccccc2C)ccc1Cc1cn(C)c2ccc(NC(=O)OC3CCCC3)cc12,maximum recommended daily dose (mmol/kg-bw/day),TherapeuticCategory: antiasthmatic,0.00116
Nc1nc(N)c2nc(CNc3ccc(C(=O)NC(CCC(=O)O)C(=O)O)cc3)cnc2n1 (stereo not given),maximum recommended daily dose (mmol/kg-bw/day),TherapeuticCategory: rodenticide,1.89e-05
CC(C)(C)c1ccc(CN2CCN(C(c3ccccc3)c3ccc(Cl)cc3)CC2)cc1 (stereo not given),maximum recommended daily dose (mmol/kg-bw/day),[1],0.00577
CC(C)[C@@H](C)/C=C/[C@@H](C)[C@H]1CC[C@H]2/C(=C/C=C3\C[C@@H](O)CC[C@@H]3C)CCC[C@]12C,maximum recommended daily dose (mmol/kg-bw/day),TherapeuticCategory: regulator,0.000105
OC[C@@H](O)CN1CCN(c2ccccc2)CC1,maximum recommended daily dose (mmol/kg-bw/day),TherapeuticCategory: antitussive,0.0127
C[C@@H]1C/C=C/C=C/C=C/C=C/[C@H](O[C@@H]2O[C@H](C)[C@@H](O)[C@H](N)[C@@H]2O)C[C@@H]2O[C@](O)(C[C@@H](O)C[C@H]3O[C@@H]3/C=C/C(=O)O1)C[C@H](O)[C@H]2C(=O)O,maximum recommended daily dose (mmol/kg-bw/day),[2],0.000413
CC(C)(N)Cc1ccccc1Cl,maximum recommended daily dose (mmol/kg-bw/day),TherapeuticCategory: anorexic,0.00454
CCCCc1nc(Cl)c(CO)n1Cc1ccc(-c2ccccc2-c2nn[nH]n2)cc1,maximum recommended daily dose (mmol/kg-bw/day),[3],0.00395
Nc1ccc(C(=O)NCC(=O)O)cc1,maximum recommended daily dose (mmol/kg-bw/day),"TherapeuticCategory: anti inflammatory, antifungal",0.0515
CCN(CC)C(=S)S,maximum recommended daily dose (mmol/kg-bw/day),"TherapeuticCategory: immunomodulator, chelating agent",0.0584
CC(C)N=C(N)/N=C(\N)Nc1ccc(Cl)cc1,maximum recommended daily dose (mmol/kg-bw/day),TherapeuticCategory: antimalarial,0.0131
CC(C)c1cccc(C(C)C)c1O,maximum recommended daily dose (mmol/kg-bw/day),[4],0.014
CC(=O)Oc1ccccc1C(=O)O,maximum recommended daily dose (mmol/kg-bw/day),"TherapeuticCategory: analgesic, antipyretic, anti inflammatory",0.37
NC[C@@H]1O[C@H](O[C@H]2[C@@H](O)[C@H](O[C@@H]3[C@@H](O)[C@H](N)C[C@H](N)[C@H]3O[C@H]3O[C@H](CO)[C@@H](O)[C@H](O)[C@H]3N)O[C@@H]2CO)[C@H](N)[C@@H](O)[C@@H]1O,maximum recommended daily dose (mmol/kg-bw/day),"TherapeuticCategory: antibacterial, antiamebic",0.0569
NCC1(CC(=O)O)CCCCC1,maximum recommended daily dose (mmol/kg-bw/day),[5],0.117
Cc1ccc(C(=O)Oc2ccc(C(O)CNC(C)(C)C)cc2OC(=O)c2ccc(C)cc2)cc1 (stereo not given),maximum recommended daily dose (mmol/kg-bw/day),TherapeuticCategory: bronchodilator,8.02e-05
CC[C@@H](C(N)=O)N1CCCC1=O,maximum recommended daily dose (mmol/kg-bw/day),[5],0.353
NS(=O)(=O)c1cc2c(cc1Cl)NC=NS2(=O)=O,maximum recommended daily dose (mmol/kg-bw/day),TherapeuticCategory: diuretic,0.113
CN1CC[C@]23c4c5ccc(O)c4O[C@H]2[C@@H](O)C=C[C@H]3[C@H]1C5,maximum recommended daily dose (mmol/kg-bw/day),[6],0.00585
CCN(C)C(=O)Oc1cccc([C@H](C)N(C)C)c1,maximum recommended daily dose (mmol/kg-bw/day),TherapeuticCategory: cholinesterase inhibitor,0.000799
CCC[C@@H]1C[C@@H](C(=O)N[C@@H]([C@H]2O[C@H](SC)[C@H](O)[C@@H](O)[C@H]2O)[C@@H](C)O)N(C)C1,maximum recommended daily dose (mmol/kg-bw/day),[2],0.0819
O=C(O)C1CSCN1 (stereo not given),maximum recommended daily dose (mmol/kg-bw/day),TherapeuticCategory: choleretic,0.0751
CCCC[N+]1(C)[C@@H]2CC(OC(=O)[C@H](CO)c3ccccc3)C[C@H]1[C@@H]1O[C@@H]12 (stereo not given in full),maximum recommended daily dose (mmol/kg-bw/day),TherapeuticCategory: antispasmotic,0.00302
CC1(C)S[C@@H]2[C@H](NC(=O)COc3ccccc3)C(=O)N2[C@H]1C(=O)O,maximum recommended daily dose (mmol/kg-bw/day),[2],0.0713
CN[C@@H]1[C@@H](O)[C@@H](O[C@@H]2[C@@H](O)[C@H](O[C@H]3O[C@H](CN)CC[C@H]3N)[C@@H](N)C[C@H]2N)OC[C@]1(C)O,maximum recommended daily dose (mmol/kg-bw/day),[2],0.00667
N[C@@H](CCC(=O)O)C(=O)O,maximum recommended daily dose (mmol/kg-bw/day),TherapeuticCategory: experimental antiepileptic,0.68
CN(C)CCN1C(=O)c2ccccc2N(C)c2ccccc21,maximum recommended daily dose (mmol/kg-bw/day),[7],0.0406
C#C[C@]1(O)CC[C@H]2[C@@H]3CCC4=CCCC[C@@H]4[C@H]3C(=C)C[C@@]21CC,maximum recommended daily dose (mmol/kg-bw/day),TherapeuticCategory: progestogen,8.05e-06
C[C@H]1O[C@@H](O[C@H]2[C@@H](O)C[C@H](O[C@H]3[C@@H](O)C[C@H](O[C@H]4CC[C@@]5(C)[C@H](CC[C@@H]6[C@@H]5CC[C@]5(C)[C@@H](C7=CC(=O)OC7)CC[C@]65O)C4)O[C@@H]3C)O[C@@H]2C)C[C@H](O)[C@@H]1O,maximum recommended daily dose (mmol/kg-bw/day),TherapeuticCategory: cardiotonic,2.61e-08
CN[C@@H]1[C@H](O[C@H]2[C@H](O[C@H]3[C@H](O)[C@@H](O)[C@H](N=C(N)N)[C@@H](O)[C@@H]3N=C(N)N)O[C@@H](C)[C@]2(O)CO)O[C@@H](CO)[C@H](O)[C@H]1O,maximum recommended daily dose (mmol/kg-bw/day),[2],0.0286
COC(=O)C(c1ccccc1)C1CCCCN1 (stereo not given),maximum recommended daily dose (mmol/kg-bw/day),TherapeuticCategory: CNS stimulant,0.00429
C[C@H]1C[C@@H]2[C@H]([C@@H](O)C[C@@]3(C)[C@H]2CC[C@]3(O)C(=O)COC(=O)CCC(=O)O)[C@@]2(C)C=CC(=O)C=C12,maximum recommended daily dose (mmol/kg-bw/day),[8],0.0084
COCC(=O)O[C@]1(CCN(C)CCCc2nc3ccccc3[nH]2)CCc2cc(F)ccc2[C@@H]1C(C)C,maximum recommended daily dose (mmol/kg-bw/day),"TherapeuticCategory: antihypertensive, Ca channel blocker",0.00337
CC(=O)c1ccc2c(c1)N(CCCN(C)C)c1ccccc1S2,maximum recommended daily dose (mmol/kg-bw/day),TherapeuticCategory: tranquilizer,0.000459
NS(=O)(=O)c1cc2c(cc1Cl)NC(C(Cl)Cl)NS2(=O)=O (stereo not given),maximum recommended daily dose (mmol/kg-bw/day),"TherapeuticCategory: diuretic, antihypertensive",0.000175
C=CCN1CC[C@]23c4c5ccc(O)c4O[C@H]2C(=O)CC[C@@]3(O)[C@H]1C5,maximum recommended daily dose (mmol/kg-bw/day),TherapeuticCategory: narcotic antagonist,0.000305
O=c1[nH]cnc2c1ncn2[C@H]1CC[C@@H](CO)O1,maximum recommended daily dose (mmol/kg-bw/day),TherapeuticCategory: antiviral,0.0282
NS(=O)(=O)c1cc(C(=O)O)cc(N2CCCC2)c1Oc1ccccc1,maximum recommended daily dose (mmol/kg-bw/day),TherapeuticCategory: diuretic,0.000552
O=C(N[C@H](CO)[C@H](O)c1ccc([N+](=O)[O-])cc1)C(Cl)Cl,maximum recommended daily dose (mmol/kg-bw/day),"TherapeuticCategory: antibacterial, antirickettsial",0.309
Cc1ccnc(NS(=O)(=O)c2ccc(N)cc2)n1,maximum recommended daily dose (mmol/kg-bw/day),[2],0.252
Cc1ncc2n1-c1ccc(Cl)cc1C(c1ccccc1F)=NC2,maximum recommended daily dose (mmol/kg-bw/day),[4],0.000256
COc1cc(C(=O)NCc2ccc(OCCN(C)C)cc2)cc(OC)c1OC,maximum recommended daily dose (mmol/kg-bw/day),[1],0.043
CC(C)(C)NCC(O)COc1cccc2c1C[C@H](O)[C@H](O)C2 (stereo not given in full),maximum recommended daily dose (mmol/kg-bw/day),"TherapeuticCategory: antihypertensive, antianginal",0.0346
CC[N+](C)(CC)CCOC(=O)C1c2ccccc2Oc2ccccc21,maximum recommended daily dose (mmol/kg-bw/day),[9],0.0159
CCCCC(=O)N(Cc1ccc(-c2ccccc2-c2nn[nH]n2)cc1)[C@@H](C(=O)O)C(C)C,maximum recommended daily dose (mmol/kg-bw/day),[3],0.0122
CN1CCN2c3ncccc3Cc3ccccc3C2C1 (stereo not given),maximum recommended daily dose (mmol/kg-bw/day),[7],0.00283
CC(=O)OCC(=O)[C@@]1(O)CC[C@H]2[C@@H]3CCC4=CC(=O)C=C[C@]4(C)[C@H]3[C@@H](O)C[C@@]21C,maximum recommended daily dose (mmol/kg-bw/day),[8],0.00827
O=C(O)CC(O)(CC(=O)O)C(=O)O,maximum recommended daily dose (mmol/kg-bw/day),TherapeuticCategory: bactericide,0.52
CS(=O)(=O)OCCCCOS(C)(=O)=O,maximum recommended daily dose (mmol/kg-bw/day),[10],0.00054
CS(=O)(=O)c1ccc([C@@H](O)[C@@H](CO)NC(=O)C(Cl)Cl)cc1,maximum recommended daily dose (mmol/kg-bw/day),[2],0.14
N[C@@H](Cc1cc(I)c(Oc2ccc(O)c(I)c2)c(I)c1)C(=O)O,maximum recommended daily dose (mmol/kg-bw/day),TherapeuticCategory: thyroid hormone,2.57e-06
CCOC(=O)C1(c2ccccc2)CCN(CCC(C#N)(c2ccccc2)c2ccccc2)CC1,maximum recommended daily dose (mmol/kg-bw/day),"TherapeuticCategory: antiperistaltic, antidiarrheal",0.000736
Cc1ccccc1-n1c(C)nc2ccccc2c1=O,maximum recommended daily dose (mmol/kg-bw/day),"TherapeuticCategory: hypnotic, sedative",0.02
CN(C)[C@@H]1C(=O)C(C(N)=O)=C(O)[C@@]2(O)C(=O)C3=C(O)c4c(O)ccc(Cl)c4[C@@H](O)[C@H]3C[C@@H]12,maximum recommended daily dose (mmol/kg-bw/day),[2],0.0323
CCc1cc(C(N)=S)ccn1,maximum recommended daily dose (mmol/kg-bw/day),[2],0.1
CCOC(=O)N1CCC(=C2c3ccc(Cl)cc3CCc3cccnc32)CC1,maximum recommended daily dose (mmol/kg-bw/day),TherapeuticCategory: antihistaminic,0.000436
C=C1C[C@@H]2[C@H](CC[C@]3(C)C(=O)CC[C@@H]23)[C@@]2(C)C=CC(=O)C=C12,maximum recommended daily dose (mmol/kg-bw/day),[10],0.00135
COC1CC(=C(c2cccs2)c2cccs2)C[N+](C)(C)C1 (stereo not given),maximum recommended daily dose (mmol/kg-bw/day),[9],0.00375
c1ccc(C2(N3CCCCC3)CCCCC2)cc1,maximum recommended daily dose (mmol/kg-bw/day),"TherapeuticCategory: analgesic, anesthetic",0.000822
COc1cc(NS(=O)(=O)c2ccc(N)cc2)nc(C)n1,maximum recommended daily dose (mmol/kg-bw/day),[2],0.113
OC[C@@H](O)[C@@H](O)[C@H](O)[C@@H](O)CO,maximum recommended daily dose (mmol/kg-bw/day),TherapeuticCategory: cathartic,4.57
CCC(=O)O[C@]1(c2ccccc2)CCN(C)C[C@@H]1C,maximum recommended daily dose (mmol/kg-bw/day),[6],0.00191
CC(C)N=c1cc2n(-c3ccc(Cl)cc3)c3ccccc3nc-2cc1Nc1ccc(Cl)cc1,maximum recommended daily dose (mmol/kg-bw/day),[2],0.00703
C[C@]12CC[C@@H]3c4ccc(OS(=O)(=O)O)cc4CC[C@H]3[C@@H]1CCC2=O,maximum recommended daily dose (mmol/kg-bw/day),TherapeuticCategory: estrogen,0.000107
COc1ccc(/C=C/C(=O)Nc2ccccc2C(=O)O)cc1OC,maximum recommended daily dose (mmol/kg-bw/day),TherapeuticCategory: antiallergic,0.0153
